Measured values from US4396606A, “Novel polypeptide analgesics” (Addiction Research Foundation, priority 1979, dated 1983).
Read-outs that look alike come from different tables or passages of the source.

Tests used:
[1] = system: guinea pig ileum myenteric plexus-longitudinal muscle preparation; test: guinea pig ileum myenteric plexus-longitudinal muscle preparation bioassay; type: cell-based; details: for IC50: inhibition of electrically stimulated twitch, geometric mean of several muscle strips
Description: Starting material was 100 g MSH concentrate, the second oxycellulose adsorbate in commercial ACTH production from procine pituitary glands (Schally et al (1962) Endocrinology 71, 164). The initial steps, with 25 g batches, have been described in Lowney et al (1979) Life Sci. 24, 2377: extraction and back-extraction with butanol; separation from β-endorphin on Bio-Gel P6; preparative reversed-phase HPLC on C18 columns, first with a methanol gradient in trifluoroacetic acid (TFA), then with an acetonitrile gradient in Tris buffer at neutrality, followed by elution of the active material with TFA. Every step was monitored by assay on the guinea pig ileum myenteric plexus-longitudinal muscle preparation. Kosterlitz & Waterfled (1975) Ann. Rev. Pharmacol. 15, 29; Schulz & Goldstein (1973) Brit. J. Pharmacol. 48, 655.
(§1) The guinea pig ileum myenteric plexus-longitudinal muscle preparation was used as described in Kosterlitz et al, supra, and Schulz & Goldstein, supra. […] Geometric means of IC50 values from several muscle strips were obtained, with standard errors in log units. Kd values for naloxone as an antagonist were determined from the ratio of IC50 values in the presence and absence of a fixed naloxone concentration. The mouse vas deferens was used as described in Hughes at al (1975) Brit. J. Pharmacol. 53, 371. IC50 and naloxone Kd values were determined as above.
(§2) Effects of dynorphin-(1-13) in two bioassays. […] Naloxone Kd is the apparent dissociation constant of the antagonist, computed from the equation Kd =[…]/(D.R.-1), derived from the mass law for competitive antagonism, where C=concentration of naloxone (here 100 nM), and D.R.=dose ratio of agonist, the ratio of IC50 doses in the presence and absence of the antagonist. The same procedures were followed with the mouse vas deferens. IC50 values are geometric means, with standard errors in log units, number of tissue preparations in parentheses. Kd determinations were based on four tissue preparations. RX-1 is des-arg^6 -dynorphin-(1-13); RS-2 has gly^6 insertion in dynorphin-(1-13).

mouse vas deferens = mouse vas deferens bioassay; type: cell-based; details: for Potency in mouse vas deferens / potency in guinea pig ileum: ratio of potencies in the two bioassays; for IC50: inhibition of electrically stimulated twitch, geometric mean
Protocol: as §1, §2

rat brain membranes = test: radioreceptor binding assay; details: for IC50: 1 nM radioligand, 1 h at 23°
Protocol: The radioreceptor binding assay used well washed rat brain membranes that had been incubated for 30 min at 37° with 100 mM NaCl to remove bound endogenous ligands. Blume (1978) Proc. Natl. Acad. Sci. 75, 1713. Several radioligands (1 nM final concentration) and competing ligands were tested. Competing ligands were added to the membrane suspension in Tris buffer, pH 7.4 at 23°, and radioligand was added immediately thereafter. Assay volume was 500 μl. After incubation (1 h, 23°), the mixture was chilled, filtered, washed twice, and counted.
Washed membranes from rat brain homogenate, 1 h incubation at 23°. Data are IC50 values (nM) from complete log dose-inhibition curves for inhibition of stereospecific binding of the various radioligands. […] DADLE=D-ala^2 -D-leu^5 -enkephalin. DHM=dihydromorphine.

[2] = treatment with cyanogen bromide
[3] = system: antiserum to dynorphin (1-13)-thyroglobulin conjugate; test: dynorphin radioimmunoassay; type: binding, rabbit
Description: The subject dynorphin was used for the development of immunoassays, illustrated particularly by a radioimmunoassay. For carrying out the immunoassay, it is necessary to prepare antigens which specifically recognize the oligopeptide, in this case dynorphin. To prepare antigen conjugates, thyroglobulin was conjugated to synthetic dynorphin (1-13). The procedure for preparing the antigen conjugate, injecting the antigen conjugate into animals and isolating the antisera is described as follows.
Synthetic dynorphin (1-13) (3.25 μmoles, 5.2 mg) was dissolved in 2 ml of 100 mM sodium phosphate buffer at neutrality. To the mixture was added with agitation 10^5 cpm of ^125 I-dynorphin to serve as a tracer. After addition of the tracer, 26 mg of thyroglobulin (bovine type 1, Sigma) was added and the mixture cooled in an ice-bath after the thyroglobulin dissolved. A 1:100 dilution with cold water of glutaraldehyde (Sigma, Grade 1, 25% aqueous solution) (1 ml) was added dropwise with stirring in a cold room at 4° and agitation continued for 30 min., followed by warming to room temperature and continuing the stirring for 3 hrs.
Based on the coupling efficiency calculated from the cpm of the dialysis bag residue, after lyophilizing, sufficient of the conjugate was employed to provide 50-100 μg of coupled oligopeptide per rabbit. For six rabbits, the dry material was added to 4 ml of 0.9% NaCl, followed by 4 ml of Freund's incomplete adjuvant. The mixture was uniformly dispersed by drawing up and down in a syringe and needle for 30 mins., the mixture divided into six aliquots and approximately 10 to 12 interdermal injections made in a shaved New Zealand White X San Juan hybrid rabbit. Booster injections were made at two week intervals, with a bleeding taken 10 days after the fourth booster shot, 50 ml of blood being removed from the ear artery, allowed to clot, the serum removed and stored frozen.
In small borosilicate tubes was added 25 μl dynorphin (equimolar to Na ^125 I), 50 μl Na ^125 I, and 20 μl chloramine-T and the mixture allowed to react at room temperature for 30-45 mins. The reaction was terminated by adding 100 μl of sodium metabisulfite. After washing a Sephadex G-15 column (1.2×35 cm) with 0.25 M acetic acid and 0.1% bovine serum albumin, the reaction mixture was added and eluted with the same solvent, collecting 1 ml fractions at a rate of 0.3 ml/min, collecting a total of 50 fractions.
Antiserum: A 1:10 dilution of the antiserum in 50 mM sodium phosphate buffer, pH7.4, containing 50 mM NaCl was diluted 1:10^4 with buffer B;
Dynorphin (1-13) standard: Standards were prepared by taking 10 μl of a 10 mM stock solution in water and adding 990 μl of methanolic HCl to make a […] dynorphin solution followed by 1:100 dilutions to provide the desired series.
^125 I-dynorphin (1-13) trace: The trace stored in 0.25 M acetic acid containing 0.1% BSA was diluted to about 5,000 cpm/100 μl with buffer B.
The procedure for the assay was as follows: All solutions were in ice at the outset and all operations were carried out in ice. In a […] borosilicate glass tube was added in the following order 100 μl of dynorphin (1-13) standard or test sample in methanolic HCl; 100 μl of the antiserum dilution; and 100 μl of the trace, followed by incubation at 0°-4° for 24 hrs. Incubation was terminated with a charcoal mixture prepared by mixing 3 g Norit A, 0.3 g dextran, 15 ml horse serum and the mixture brought to 100 ml with buffer A and mixed for 10 min in a cold room before use. To each incubation tube was added 1 ml of a charcoal mixture, the mixture vortexed followed by incubation for 5 min in a cold room and then centifuged at 5000×g for 15 min in a Beckman Model J6B (4200 rpm). To a 13×100 mm borosilicate glass tube was transferred 850 μl of the supernatant and the tube counted for 5 min in a gamma counter.

[4] = ^a = unusually shallow slope, read-out: IC50 for inhibition of stereospecific binding, radioligand 3H-DADLE
[5] = ^a = unusually shallow slope, read-out: IC50 for inhibition of stereospecific binding, radioligand 3H-DHM

With βc -endorphin [reference compound] the IC50 [1] was 34 nM, the “Potency in mouse vas deferens / potency in guinea pig ileum” value (mouse vas deferens) was 1.5 and the IC50 (rat brain membranes; [4]) was 2.1 nM. The IC50 (rat brain membranes; [5]) was 1.8 nM.

For `C=CCN1CC[C@@]23CCCC[C@@H]2[C@@H]1Cc1ccc(O)cc13` [dextrallorphan], the “effect on radioligand binding” value (rat brain membranes; 1 μM competing ligand) was “without effect”.

For `C=CCN1CC[C@]23CCCC[C@H]2[C@H]1Cc1ccc(O)cc13` [levallorphan], the “displacement of radioligand (stereospecific saturable binding)” value (rat brain membranes; 1 μM final concentration) was “about 70 % of total binding”.

In the case of `Oc1ccc2c3c1O[C@H]1[C@@H](O)C=C[C@H]4[C@@H](C2)NCC[C@@]341` [Normorphine], the IC50 ([1]; Cavia porcellus) is reported as 120 nM, the IC50 (mouse vas deferens; Mus musculus) is reported as 230 nM and the IC50 (rat brain membranes; [5]) is reported as 5 nM. For the same molecule, the IC50 (rat brain membranes; with Na, read-out: IC50 for inhibition of stereospecific binding, radioligand 3H-naloxone +Na) was 260 nM and the IC50 (rat brain membranes; without Na, read-out: IC50 for inhibition of stereospecific binding, radioligand 3H-naloxone -Na) was 21 nM.

With “H-tyr-gly-gly-phe-leu-arg-arg-ile-arg-pro-lys-leu-lys-OH [Dynorphin-(1-13)]” the “potency relative to leu-enkephalin” value ([1]; guinea pig ileum test) was “about 1000 x”, the “potency relative to normorphine” value ([1]; guinea pig ileum test) was “about 350 x” and the “potency relative to β-endorphin” value ([1]; guinea pig ileum test) was “about 30 x”. The IC50 [1] was 0.63 nM, the “persistence in the guinea pig ileum test” value ([1]; unlike β-endorphin) was “long persistence” and the IC50 (mouse vas deferens) was 7.5 nM. The “Potency in mouse vas deferens / potency in guinea pig ileum” value (mouse vas deferens) was 0.08, the IC50 (rat brain membranes; [4]) was 43 nM and the IC50 (rat brain membranes; [5]) was 16 nM. For the same molecule, the “resistance to treatment with cyanogen bromide” value [2] was “relatively resistant”, the B/Bo ([3]; 1 × 10^-13 moles dynorphin per assay tube) was 15 and the B/Bo ([3]; 1 × 10^-14 moles dynorphin per assay tube) was 45. The B/Bo ([3]; 1 × 10^-15 moles dynorphin per assay tube) was 85, the B/Bo ([3]; 1 × 10^-16 moles dynorphin per assay tube) was 100 and the B/Bo ([3]; 5 × 10^-13 moles dynorphin per assay tube) was 5. It also gave a B/Bo ([3]; 5 × 10^-14 moles dynorphin per assay tube) of 30, a B/Bo ([3]; 5 × 10^-15 moles dynorphin per assay tube) of 75 and a B/Bo ([3]; 5 × 10^-16 moles dynorphin per assay tube) of 100.
